Assay results as given in PubChem BioAssay (NCI).
Where “and” joins values, the source holds several entries; their conditions need not be identical. Equal values may be shown once.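 Method: 48-hour compound exposure of cells in 96-well plates, five concentrations, linear interpolation of endpoints. GI50 is the concentration that inhibits growth by half. TGI denotes the concentration required for complete inhibition of growth.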

Legend:
Test in all cases: NCI-60 cell line screen, 48 h
EKVX NSCLC = system: EKVX NSCLC
HCC-2998 colon = system: HCC-2998 colon
HL-60(TB) leukemia = system: HL-60(TB) leukemia
HT29 colon = system: HT29 colon
IGROV1 ovarian = system: IGROV1 ovarian
KM12 colon = system: KM12 colon
MCF7 breast = system: MCF7 breast
PC-3 prostate = system: PC-3 prostate
SF-268 CNS = system: SF-268 CNS
SK-MEL-28 melanoma = system: SK-MEL-28 melanoma
SNB-75 CNS = system: SNB-75 CNS
UACC-257 melanoma = system: UACC-257 melanoma

CC(C)(C)OC(=O)NC(CSCc1ccc(C(=O)c2ccccc2)cc1)C(=O)N1CCN(CCCCN2c3ccccc3Sc3cc(N=[N+]=[N-])ccc32)CC1 (configuration not stated)
TGI (EKVX NSCLC): > 100 µM
TGI (HCC-2998 colon): > 100 µM
TGI (HL-60(TB) leukemia): > 100 µM
TGI (HT29 colon): > 100 µM
TGI (IGROV1 ovarian): > 100 µM
TGI (KM12 colon): > 100 µM
TGI (MCF7 breast): > 100 µM
TGI (PC-3 prostate): > 100 µM
TGI (SF-268 CNS): > 100 µM
TGI (SK-MEL-28 melanoma): > 100 µM
TGI (SNB-75 CNS): > 100 µM
TGI (UACC-257 melanoma): > 100 µM

CCC1c2[nH]c3ccccc3c2C[C@H]2C(=O)NC(C)C(=O)N12 (some centres not stated)
TGI (EKVX NSCLC): > 100 µM
TGI (HCC-2998 colon): > 100 µM
TGI (HL-60(TB) leukemia): > 100 µM
TGI (HT29 colon): > 100 µM
TGI (IGROV1 ovarian): > 100 µM
TGI (KM12 colon): > 100 µM
TGI (MCF7 breast): > 100 µM
TGI (PC-3 prostate): > 100 µM
TGI (SF-268 CNS): > 100 µM
TGI (SK-MEL-28 melanoma): > 100 µM
TGI (SNB-75 CNS): > 100 µM
TGI (UACC-257 melanoma): > 100 µM

CS(=O)(=O)OCCN(CCOS(C)(=O)=O)c1ccc(C=Nc2ccc(-c3csc(Cc4ccccc4)n3)cc2)c(Cl)c1
TGI (EKVX NSCLC): > 100 µM
TGI (HCC-2998 colon): 35.1 µM
TGI (HL-60(TB) leukemia): 35.7 µM
TGI (HT29 colon): 64.5 µM
TGI (IGROV1 ovarian): > 74.2 µM
TGI (KM12 colon): > 63.9 µM
TGI (MCF7 breast): 50.1 µM
TGI (PC-3 prostate): > 79.8 µM
TGI (SF-268 CNS): > 100 µM
TGI (SK-MEL-28 melanoma): > 100 µM
TGI (SNB-75 CNS): > 68.1 µM
TGI (UACC-257 melanoma): 17.8 µM

Nc1cc(C2CCCc3c2[nH]c2ccccc32)ccc1O (configuration not stated)
TGI (EKVX NSCLC): > 100 µM
TGI (HCC-2998 colon): > 100 µM
TGI (HL-60(TB) leukemia): 50.3 µM
TGI (HT29 colon): > 100 µM
TGI (IGROV1 ovarian): > 100 µM
TGI (KM12 colon): > 100 µM
TGI (MCF7 breast): > 100 µM
TGI (PC-3 prostate): > 100 µM
TGI (SF-268 CNS): > 100 µM
TGI (SK-MEL-28 melanoma): > 100 µM
TGI (SNB-75 CNS): > 100 µM
TGI (UACC-257 melanoma): > 100 µM

CCC1(O)C(=O)OCc2c1cc1n(c2=O)Cc2cc3cc4c(cc3nc2-1)OCO4 (configuration not stated)
TGI (EKVX NSCLC): 4.27 µM
TGI (HCC-2998 colon): 0.396 µM
TGI (HL-60(TB) leukemia): 0.479 µM
TGI (HT29 colon): 19.9 µM
TGI (IGROV1 ovarian): 1.54 µM
GI50 (KM12 colon): 0.0978 µM
TGI (KM12 colon): 5.69 µM
TGI (MCF7 breast): > 12.8 µM
TGI (PC-3 prostate): > 100 µM
TGI (SF-268 CNS): 0.761 µM
TGI (SK-MEL-28 melanoma): 18.9 µM
TGI (SNB-75 CNS): 0.0369 µM
TGI (UACC-257 melanoma): 0.822 µM

N=c1oc2ccc3ccccc3c2cc1-c1nc2ccccc2c(=O)[nH]1
TGI (EKVX NSCLC): > 100 µM
TGI (HCC-2998 colon): > 100 µM
TGI (HL-60(TB) leukemia): > 100 µM
TGI (HT29 colon): 39.5 µM
TGI (IGROV1 ovarian): 75.9 µM
TGI (KM12 colon): 43 µM
TGI (MCF7 breast): 30 µM
TGI (PC-3 prostate): > 100 µM
TGI (SF-268 CNS): > 100 µM
TGI (SK-MEL-28 melanoma): > 100 µM
TGI (SNB-75 CNS): 19.6 µM
TGI (UACC-257 melanoma): > 100 µM

COc1ccc(C2=C(OC(C)=O)c3cccn3-c3ccc(Cl)cc3S2)cc1
TGI (EKVX NSCLC): > 10 µM
TGI (HCC-2998 colon): > 10 µM
TGI (HL-60(TB) leukemia): 3.02 µM
TGI (HT29 colon): > 10 µM
TGI (IGROV1 ovarian): > 10 µM
TGI (KM12 colon): 9.75 µM
TGI (MCF7 breast): > 10 µM
TGI (PC-3 prostate): > 10 µM
TGI (SF-268 CNS): > 10 µM
TGI (SK-MEL-28 melanoma): > 10 µM
TGI (SNB-75 CNS): > 10 µM
TGI (UACC-257 melanoma): > 10 µM

COC(=O)c1csc(-c2csc(CCNC(=O)OC(C)(C)C)n2)n1
TGI (EKVX NSCLC): > 100 µM
TGI (HCC-2998 colon): > 100 µM
TGI (HL-60(TB) leukemia): > 100 µM
TGI (HT29 colon): > 100 µM
TGI (IGROV1 ovarian): > 100 µM
TGI (KM12 colon): > 100 µM
TGI (MCF7 breast): > 100 µM
TGI (PC-3 prostate): > 100 µM
TGI (SF-268 CNS): > 100 µM
TGI (SK-MEL-28 melanoma): > 100 µM
TGI (SNB-75 CNS): > 100 µM
TGI (UACC-257 melanoma): > 100 µM

C(=N\NC1=NCCCCN1)/c1ccc2ccccc2c1
TGI (EKVX NSCLC): > 100 µM
TGI (HCC-2998 colon): 30.3 µM
TGI (HL-60(TB) leukemia): 62.8 µM
TGI (HT29 colon): 71.9 µM
TGI (IGROV1 ovarian): > 100 µM
TGI (KM12 colon): > 100 µM
TGI (MCF7 breast): 70.4 µM
TGI (PC-3 prostate): > 100 µM
TGI (SF-268 CNS): > 100 µM
TGI (SK-MEL-28 melanoma): 40.4 µM
TGI (SNB-75 CNS): > 100 µM
TGI (UACC-257 melanoma): 46.6 µM

Cc1ccc([N+](=O)[O-])cc1S(=O)(=O)Nc1ccc(C2=NN(S(=O)(=O)c3cc([N+](=O)[O-])ccc3C)C(c3cccs3)C2)cc1 (configuration not stated)
TGI (EKVX NSCLC): > 100 µM
TGI (HCC-2998 colon): 56.6 µM
TGI (HL-60(TB) leukemia): > 100 µM
TGI (HT29 colon): > 100 µM
TGI (IGROV1 ovarian): > 100 µM
TGI (KM12 colon): > 100 µM
TGI (MCF7 breast): 82.1 µM
TGI (PC-3 prostate): > 100 µM
TGI (SF-268 CNS): 75 µM
TGI (SK-MEL-28 melanoma): > 100 µM
TGI (SNB-75 CNS): > 100 µM
TGI (UACC-257 melanoma): > 100 µM

CCO/N=C\c1ccc2oc(-c3ccccc3)cc(=O)c2c1
TGI (EKVX NSCLC): 36.8 µM
TGI (HCC-2998 colon): 6.08 µM
TGI (HL-60(TB) leukemia): 12.2 µM
TGI (HT29 colon): 5.34 µM
TGI (IGROV1 ovarian): 10.7 µM
TGI (KM12 colon): 11.1 µM
TGI (MCF7 breast): 18 µM
TGI (PC-3 prostate): 20.4 µM
TGI (SF-268 CNS): 24.2 µM
TGI (SK-MEL-28 melanoma): > 100 µM
TGI (SNB-75 CNS): 13.8 µM
TGI (UACC-257 melanoma): 66 µM

COc1cc(/C=C/C(=O)CC(=O)/C=C/c2cc(C)c(O)c(OC)c2)cc(C)c1O
TGI (EKVX NSCLC): > 100 µM
TGI (HCC-2998 colon): > 100 µM
TGI (HL-60(TB) leukemia): > 100 µM
TGI (HT29 colon): > 100 µM
TGI (IGROV1 ovarian): > 100 µM
TGI (KM12 colon): > 100 µM
TGI (MCF7 breast): > 100 µM
TGI (PC-3 prostate): > 100 µM
TGI (SF-268 CNS): > 100 µM
TGI (SK-MEL-28 melanoma): > 100 µM
TGI (SNB-75 CNS): > 100 µM
TGI (UACC-257 melanoma): > 100 µM

COc1ccc2[nH]c3ccc4cc[n+](CCN5CCC(C6CCN(CC[n+]7ccc8ccc9[nH]c%10ccc(OC)cc%10c9c8c7)CC6)CC5)cc4c3c2c1
GI50 (EKVX NSCLC): 3.19 µM
TGI (EKVX NSCLC): > 50 µM and 63.1 µM
TGI (HCC-2998 colon): 14.2 µM and > 100 µM
GI50 (HL-60(TB) leukemia): 4.47 µM and 0.899 µM
TGI (HL-60(TB) leukemia): 50 µM and 8.43 µM
GI50 (HT29 colon): 0.938 µM
TGI (HT29 colon): 31.4 µM and > 100 µM
GI50 (IGROV1 ovarian): 0.269 µM
TGI (IGROV1 ovarian): 50 µM and > 19 µM
GI50 (KM12 colon): 0.631 µM
TGI (KM12 colon): 50 µM and > 92.7 µM
GI50 (MCF7 breast): 0.313 µM and 0.488 µM
TGI (MCF7 breast): 50 µM and > 28.3 µM
TGI (PC-3 prostate): 50 µM
TGI (SF-268 CNS): 50 µM and > 56.9 µM
GI50 (SK-MEL-28 melanoma): > 50 µM
TGI (SK-MEL-28 melanoma): > 50 µM
TGI (SNB-75 CNS): 50 µM
GI50 (UACC-257 melanoma): 12.1 µM
TGI (UACC-257 melanoma): 50 µM and > 100 µM

COC(=O)[C@@]12CSC[C@]1(C(=O)OC)N[C@@H](c1ccccc1O)C2
TGI (EKVX NSCLC): > 100 µM
TGI (HCC-2998 colon): > 100 µM
TGI (HL-60(TB) leukemia): > 100 µM
TGI (HT29 colon): > 100 µM
TGI (IGROV1 ovarian): > 100 µM
TGI (KM12 colon): > 100 µM
TGI (MCF7 breast): > 100 µM
TGI (PC-3 prostate): > 100 µM
TGI (SF-268 CNS): > 100 µM
TGI (SK-MEL-28 melanoma): > 100 µM
TGI (SNB-75 CNS): > 100 µM
TGI (UACC-257 melanoma): > 100 µM
